According to patent US4242262A, “9-Nitromethyldeoxyclavulanic acid derivatives preparation and compositions” (Beecham Group Limited, priority 1977, dated 1980):

Columns and labels:
Kleb. E 70 = experiment: MIC of ampicillin alone or with compound of the Example, Kleb. E 70; type: cell-based
Proteus C 889 = experiment: MIC of ampicillin alone or with compound of the Example, Proteus C 889; type: cell-based
[1] = table 2 (no quantity or unit in head), Ampicillin alone

## CC1(C)S[C@@H]2[C@H](NC(=O)[C@H](N)c3ccccc3)C(=O)N2[C@H]1C(=O)O [Ampicillin]
Kleb. E 70; table 1, Ampicillin alone
  MIC: > 500 µg/mL
Kleb. E 70; [1]
  MIC: 22 500
Proteus C 889; table 1, Ampicillin alone
  MIC: > 500 µg/mL
Proteus C 889; [1]
  MIC: > 500 µg/mL
